The results in this text go back to publication PMC10505147, “Ustilago maydis PR-1-like protein has evolved two distinct domains for dual virulence activities” (Nature Communications, 2023).

The target in assay [1] is T1, CatB3 (Cathepsin B-like 3) (Zea mays, UniProt A0A804QEY3).
T1 construct: gene LOC100283781; untagged, expressed with signal peptide in Nicotiana benthamiana by agroinfiltration, purified from apoplastic fluid by size exclusion
Type of assay: biochemical. The following applies: 0.5 mM inhibitor, substrate UmPR-1La-HA culture supernatant, 50 mM sodium acetate, 10 mM DTT, pH 5.5, 28 °C.

In assay [2] the target is T2, UmPR-1La (PR-1La) (Mycosarcoma maydis, UniProt A0A0D1E5M0).
T2 construct: gene UMAG_01204; His-tagged full-length protein without signal peptide (PR-1La 24-279), expressed in E. coli Shuffle T7, Ni-NTA and size exclusion
T2 sequence (A0A0D1E5M0 entry or part of it): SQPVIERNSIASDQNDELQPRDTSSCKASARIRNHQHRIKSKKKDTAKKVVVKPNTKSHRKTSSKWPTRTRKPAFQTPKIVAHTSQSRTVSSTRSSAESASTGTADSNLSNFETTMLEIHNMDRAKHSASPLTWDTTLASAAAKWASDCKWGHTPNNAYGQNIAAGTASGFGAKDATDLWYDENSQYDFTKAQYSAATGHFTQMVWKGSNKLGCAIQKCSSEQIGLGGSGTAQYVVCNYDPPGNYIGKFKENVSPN
Briefly: intrinsic tryptophan fluorescence. Type of assay: binding. The following applies: 0.25 µM protein, 50 mM sodium acetate pH 5.5, room temperature, 15 min.

T1 sequence (A0A804QEY3 entry or part of it): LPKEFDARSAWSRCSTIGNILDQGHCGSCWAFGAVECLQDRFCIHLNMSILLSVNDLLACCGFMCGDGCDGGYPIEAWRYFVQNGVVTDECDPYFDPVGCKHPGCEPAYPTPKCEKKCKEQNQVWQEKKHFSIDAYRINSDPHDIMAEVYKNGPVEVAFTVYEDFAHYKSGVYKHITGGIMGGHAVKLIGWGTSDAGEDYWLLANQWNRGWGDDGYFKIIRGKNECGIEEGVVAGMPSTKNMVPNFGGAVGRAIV

As for `CC(C)C[C@H](NC(=O)[C@H]1O[C@@H]1C(=O)O)C(=O)NCCCCN=C(N)N` [E64], the “inhibition of UmPR-1La cleavage (immunoblot)” value in assay [1] is given as “The activity of CatB3 was blocked by E64 (Fig. 5b)”. For `COc1cc(/C=C/CO)ccc1O` [coniferyl alcohol], in assay [2], the intrinsic tryptophan fluorescence result is “both versions of the PR-1La proteins responded to CA by causing a shift”. With `COc1cc(/C=C/C(=O)O)ccc1O` [ferulic acid], the intrinsic tryptophan fluorescence result in assay [2] (5 µM or varied ligand, caveolin-binding motif site) is given as “the intrinsic fluorescence intensity of PR-1La decreased in an FA-concentration-dependent manner”.
